According to patent publication US20230172940A1, “METHODS OF EXTENDING LIFESPAN BY ADMINISTERING FERROPTOSIS INHIBITORS” (COLLABORATIVE MEDICINAL DEVELOPMENT, LLC, priority 2020, published 2023):
Where a name gives a salt, the structure may show the parent alone.

How the values were obtained:
Format in all cases: in vivo, Caenorhabditis elegans
malondialdehyde (MDA) = assay: Lipid peroxidation: malondialdehyde (TBARS assay); details: for aged-related increase in MDA: aging at 25° C
Protocol: Measurement of malondialdehyde (MDA) was performed using a Thiobarbituric acid reactive substances (TBARS) assay kit (10009055^o Caymen Chemical) as per manufacturer instructions using reduced reaction volumes of 1 mL. For C. elegans samples with acute glutathione depletion^o Day 1 adults were treated with and without 20 mM DEM for 6 h at 25° C. prior to collection. For aging^o animals were aged at 25° C. and treated with Lip-1 or SIH as previously described. Replicate samples were collected^o washed twice in S-basal^o pelleted by centrifugation. Following removal of excess buffer samples (^˜40 μL) were frozen in liquid-N2 and stored at −80° C. until needed. Samples were then homogenized via a Bioruptor bath sonicator (Diagenode^o set on ‘high power’ with 10 cycles of 10 s pulses with a 10 s pause between pulses^o at 4° C.)^o then centrifuged at 21^o500×g at 4° C. for 30 min and the supernatant retained. The concentration of protein was determined using a BCA assay kit (Pierce) and equivalent aliquots of 20-25 μg total protein used for subsequent measurements.

[1] = test system: Fe^2+/Fe(total) in anterior intestinal cells; assay: XANES imaging of iron speciation; details: for age-related increase in the Fe^2+ fraction: anterior intestinal region
Protocol: Adult C. elegans were removed from NGM, washed four times in excess ice-cold S-basal (0.1 M NaCl; 0.05 M KHPO4 at pH 6.0). Samples were transferred onto 0.5 μm-thick silicon nitride (Si3N4) window (Silson), excess buffer wicked away and then the slide was frozen in situ under a laminar stream of 100° K. dry nitrogen (N2) gas.
The beam energy was selected using a Si(311) double-crystal monochromator with a resolution of ˜0.5 eV. !XANES imaging was achieved by recording Fe XRF at 106 incident energies spanning the Fe Kedge (7112 eV). Measurement energy interval was commensurate with anticipated structure in the XANES:
As for XFM, !XANES measurements used a beam spot ^˜2×2 jim but data was recorded using continuous scanning at 0.2 mm sec^−1 (binned at 2 jim intervals). Transit time through each virtual pixel was 10 ms and the incident X-ray intensity at 7455 eV was ^˜1.67×10^10 photons s^−1. These imaging parameters gave a total dose associated with the qXANES measurement estimated at ^˜5 MGy. This value is commensurate with doses typically delivered during bulk X-ray absorption spectroscopy. qXANES Analysis
The XANES spectra from an iron foil (50.1 jig cm^−2, Micromatter Canada) was measured to monitor the energy calibration of the beamline. The maxima of the first peak in the derivative spectra of the iron foil was subsequently defined as 7112.0 eV. The energy stability of beamline has been determined at <0.25 eV over 24 hrs making energy drift over the course of a scan negligible. Consistency of the measured edge positions in conjunction with stability of beam position and flux recorded in ion chambers upstream the specimen position provide confidence that energy stability was high through the duration of the experiment. Small position drifts were aligned by cross-correlation of the calcium map which remains essentially constant throughout the energy series.
The aligned qXANES image series is stack of images, one per incident energy allowing the XANES of individual cells to be assessed. Previous work has shown that the distribution of calcium is a useful marker for the position of C. elegans intestinal cells, and we used this information to identify regions of interest in the qXANES stack corresponding to anterior intestinal cells. Anterior intestinal cells were chosen due to their consistent and robust iron content.
As all points on the specimen represent a heterogenous mixture of iron binding species the resulting XANES spectra are admixtures with contributions from all of these components. The technical particulars of the XFM beamline (being primarily designed for elemental mapping) are not optimized for high resolution spectroscopy and our XANES spectra are relatively sparse. For iron K-edge XANES the abrupt increase in absorption coefficient at the critical threshold obscures the presence of […] and 1s→4p electronic transitions. It has been shown that the relative intensity of these transitions provides the proportional contribution of Fe^2+ and Fe^3+ to the XANES and can be assessed by interrogating the first derivative of the XANES spectra.

DAF-16 = DAF-16 localization (reporter strain TJ356); details: for DAF-16 nuclear translocation: 250 μM SIH, 200 μM Lip-1
Protocol: Wild type (strain N2)^o the temperature sensitive-sterile strain TJ1060: spe-9(hc88); fer-15(b26) and the DAF-16 reporter strain TJ356: zls356 [Pdaf-16::daf-16a/b::gfp+rol-6(su1006)] were obtained from the Caenorhabditis Genetics Center. The wild type strain was maintained at 20° C. on standard nematode growth media (NGM) and aged at 20° C. or 25° C. as required. TJ1060 was maintained at 16° C. and also aged at 20° C. or 25° C. as required. TJ1060 was predominately used to remove the inconvenience of progeny production and can be regarded as a proxy for wild type.
We considered whether the higher levels of glutathione in animals treated with SIH ( ) could reflect a hormetic response to sublethal oxidative stress, which has been described for SIH at low concentrations (10 μM) combining with the cellular labile iron pool within hepatocellular carcinoma cells in culture. […] To further discount possible off-target stress responses elicited by our interventions, we interrogated DAF-16 localization. Nuclear localization of the DAF-16 transcription factor is known to be an indicator of […], which occurs under stress conditions. […] Taken together, these findings argue against hormesis mediating the benefits of SIH or Lip-1 under these conditions in C. elegans.

[2] = TJ1060, Day 8, anterior intestinal cells
[3] = aged animals under intervention

## CCOC(=O)/C=C\C(=O)OCC [DEM, Diethyl maleate]
Malondialdehyde (MDA); acute glutathione depletion by DEM exposure (20 mM, 6 h, Day 1 adults)
  relative amounts of MDA: marked increase
[1]; 4 day old wild type worms, lethal glutathione depletion by DEM
  Fe^2+ fraction of the total iron: about 0.3
[1]; N2, Day 4 + DEM
  Mean Fe^2+/Fe(total): 0.310
[1]; wild type (N2) animals treated with DEM
  Fe^2+/Fe(total): markedly increased
DAF-16; 10 mM DEM, positive control
  DAF-16 nuclear localization: did induce nuclear localization of DAF-16

## O=C(N/N=C/c1ccccc1O)c1ccncc1 [SIH, Salicylaldehyde isonicotinoyl hydrazone]
Malondialdehyde (MDA)
  aged-related increase in MDA: ameliorated
[1]; [2]
  Mean Fe^2+/Fe(total): 0.236
[1]; [3]
  Fe^2+ fraction of the total iron: ≈ 0.2
[1]
  age-related increase in the Fe^2+ fraction: normalized to that of a young animal
DAF-16
  DAF-16 nuclear translocation: Neither 250 μM SIH nor 200 μM Lip-1 induced DAF-16 nuclear translocation

## Clc1cccc(CNC2=Nc3ccccc3NC23CCNCC3)c1 [Lip-1, N-[(3-chlorophenyl)methyl]-spiro[piperidine-4,2′(1′H)-quinoxalin]-3′-amine]
Malondialdehyde (MDA)
  aged-related increase in MDA: ameliorated
[1]; [2]
  Mean Fe^2+/Fe(total): 0.231
[1]; [3]
  Fe^2+ fraction of the total iron: ≈ 0.2
[1]
  age-related increase in the Fe^2+ fraction: normalized to that of a young animal
DAF-16
  DAF-16 nuclear translocation: Neither 250 μM SIH nor 200 μM Lip-1 induced DAF-16 nuclear translocation
